Experimental data: US6737383B1, “Herbicidal oxadiazolidines” (priority 1999, dated 2004)

What was measured:
[1] = tested on: bedstraw; test: Test B pre/postemergence bedstraw; assay type: in vivo, Galium aparine
Outline: (§1)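 Test chemicals in a non-phytotoxic solvent mixture with surfactant were sprayed preemergence onto planted seeds and postemergence onto plants 2 to 18 cm tall (1- to 4-leaf stage). After twelve to sixteen days in a greenhouse, injury was visually rated against untreated controls from 0 (no effect) to 10 (complete control).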

[2] = tested on: blackgrass; test: Test B pre/postemergence blackgrass; assay type: in vivo, Alopecurus myosuroides
Outline: as §1

[3] = tested on: pigweed; test: Test B pre/postemergence pigweed; assay type: in vivo, Amaranthus retroflexus; details: for Plant response rating, Redroot pigweed: Postemergence
Outline: as §1

[4] = tested on: corn; test: Test B pre/postemergence corn; assay type: in vivo, Zea mays
Outline: as §1

[5] = tested on: soybean; test: Test B pre/postemergence soybean; assay type: in vivo, Glycine max; details: for Plant response rating, Soybean: Postemergence
Outline: as §1

[6] = tested on: cocklebur; test: Test B pre/postemergence cocklebur; assay type: in vivo, Xanthium strumarium
Outline: as §1

[7] = tested on: morningglory; test: Test B pre/postemergence morningglory; assay type: in vivo, Ipomoea hederacea
Outline: as §1

[8] = tested on: purple nutsedge; test: Test B pre/postemergence purple nutsedge; assay type: in vivo, Cyperus rotundus
Outline: as §1

[9] = tested on: surinam grass; test: Test B pre/postemergence surinam grass; assay type: in vivo, Brachiaria decumbens
Outline: as §1

[10] = tested on: rape; test: Test B pre/postemergence rape; assay type: in vivo, Brassica napus
Outline: as §1

[11] = tested on: crabgrass; test: Test B pre/postemergence crabgrass; assay type: in vivo, Digitaria sanguinalis
Outline: as §1

[12] = tested on: velvetleaf; test: Test B pre/postemergence velvetleaf; assay type: in vivo, Abutilon theophrasti; details: for Plant response rating, Velvetleaf: Postemergence
Outline: as §1

[13] = tested on: sugar beet; test: Test B pre/postemergence sugar beet; assay type: in vivo, Beta vulgaris; details: for Plant response rating, Sugarbeets: Postemergence
Outline: as §1

[14] = tested on: wheat; test: Test B pre/postemergence wheat; assay type: in vivo, Triticum aestivum; details: for Plant response rating, Wheat: Postemergence
Outline: as §1

[15] = tested on: wild oat; test: Test B pre/postemergence wild oat; assay type: in vivo, Avena fatua; details: for Plant response rating, Wild oats: Postemergence
Outline: as §1

[16] = tested on: giant foxtail; test: Test B pre/postemergence giant foxtail; assay type: in vivo, Setaria faberii
Outline: as §1

[17] = Postemergence, Rate 62 g/ha, scale of 0 to 10, 0 is no effect, 10 is complete control
[18] = Preemergence, Rate 62 g/ha, scale 0 to 10 (0 no effect, 10 complete control)
[19] = Preemergence, Rate 125 g/ha, scale 0 to 10, 0 is no effect, 10 is complete control
[20] = Preemergence, Rate 500 g/ha, scale of 0 to 10 where 0 is no effect and 10 is complete control
[21] = Rate 250 g/ha, Postemergence, scale of 0 to 10 where 0 is no effect and 10 is complete control
[22] = Postemergence, Rate 125 g/ha, scale 0 to 10, 0 is no effect, 10 is complete control
[23] = Postemergence, Rate 500 g/ha, scale of 0 to 10 where 0 is no effect and 10 is complete control
[24] = Rate 500 g/ha, scale of 0 to 10 where 0 is no effect and 10 is complete control
[25] = Rate 250 g/ha, scale of 0 to 10 where 0 is no effect and 10 is complete control

`COC(=O)CCCn1c(=O)on(C(=O)N(c2ccccc2)C(C)C)c1=O` [Compound 572] was tested, and the “Bedstraw plant response rating” value [1, 17] was 0, the “Bedstraw plant response rating” value [1, 18] was 0 and the “Bedstraw plant response rating” value [1, 19] was 0. The “Bedstraw plant response rating (0 to 10 scale)” value ([1]; Preemergence, Rate 250 g/ha) was 0, the “Bedstraw plant response rating” value [1, 20] was 0 and the “Plant response rating, Bedstraw” value [1, 21] was 0. The “Blackgrass plant response rating” value [2, 17] was 0, the “Blackgrass plant response rating” value [2, 22] was 0 and the “Plant response rating, Blackgrass” value [2, 23] was 0. The “Blackgrass plant response rating” value [2, 18] was 0, the “Blackgrass plant response rating” value [2, 19] was 0 and the “Blackgrass plant response rating (0 to 10 scale)” value ([2]; Preemergence, Rate 250 g/ha) was 0. For the same molecule, the “Blackgrass plant response rating” value [2, 20] was 0, the “Plant response rating, Blackgrass” value [2, 21] was 0 and the “Plant response rating, Redroot pigweed” value [3, 24] was 0. For the same molecule, the “Redroot pigweed plant response rating” value [3, 18] was 0, the “Redroot pigweed plant response rating” value [3, 19] was 0 and the “Redroot pigweed plant response rating (0 to 10 scale)” value ([3]; Preemergence, Rate 250 g/ha) was 0. For the same molecule, the “Redroot pigweed plant response rating” value [3, 20] was 5, the “Plant response rating, Redroot pigweed” value [3, 25] was 0 and the “Corn plant response rating” value [4, 17] was 0. The “Corn plant response rating” value [4, 22] was 0, the “Plant response rating, Corn” value [4, 23] was 0 and the “Corn plant response rating” value [4, 18] was 0. The “Corn plant response rating” value [4, 19] was 0, the “Corn plant response rating (0 to 10 scale)” value ([4]; Preemergence, Rate 250 g/ha) was 0 and the “Corn plant response rating” value [4, 20] was 0. For the same molecule, the “Plant response rating, Corn” value [4, 21] was 0, the “Plant response rating, Soybean” value [5, 24] was 7 and the “Soybean plant response rating” value [5, 18] was 0. The “Soybean plant response rating” value [5, 19] was 0, the “Soybean plant response rating (0 to 10 scale)” value ([5]; Preemergence, Rate 250 g/ha) was 0 and the “Soybean plant response rating” value [5, 20] was 0. The “Plant response rating, Soybean” value [5, 25] was 5, the “Cocklebur plant response rating” value [6, 17] was 0 and the “Cocklebur plant response rating” value [6, 22] was 0. For the same molecule, the “Plant response rating, Cocklebur” value [6, 23] was 0, the “Cocklebur plant response rating” value [6, 18] was 0 and the “Cocklebur plant response rating” value [6, 19] was 0. For the same molecule, the “Cocklebur plant response rating (0 to 10 scale)” value ([6]; Preemergence, Rate 250 g/ha) was 0, the “Cocklebur plant response rating” value [6, 20] was 0 and the “Plant response rating, Cocklebur” value [6, 21] was 0. The “Morningglory plant response rating” value [7, 17] was 3, the “Morningglory plant response rating” value [7, 22] was 3 and the “Plant response rating, Morningglory” value [7, 23] was 10. The “Morningglory plant response rating” value [7, 18] was 0, the “Morningglory plant response rating” value [7, 19] was 0 and the “Morningglory plant response rating (0 to 10 scale)” value ([7]; Preemergence, Rate 250 g/ha) was 0. For the same molecule, the “Morningglory plant response rating” value [7, 20] was 0, the “Plant response rating, Morningglory” value [7, 21] was 5 and the “Nutsedge plant response rating” value [8, 17] was 0. The “Nutsedge plant response rating” value [8, 22] was 0, the “Nutsedge plant response rating” value [8, 18] was 0 and the “Nutsedge plant response rating” value [8, 19] was 0. For the same molecule, the “Nutsedge plant response rating (0 to 10 scale)” value ([8]; Preemergence, Rate 250 g/ha) was 0, the “Nutsedge plant response rating” value [8, 20] was 0 and the “Plant response rating, Nutsedge” value [8, 21] was 0. The “B. signalgrass plant response rating” value [9, 17] was 0, the “B. signalgrass plant response rating” value [9, 22] was 0 and the “Plant response rating, B. signalgrass” value [9, 23] was 0. For the same molecule, the “B. signalgrass plant response rating” value [9, 18] was 0, the “B. signalgrass plant response rating” value [9, 19] was 0 and the “B. signalgrass plant response rating (0 to 10 scale, 0 is no effect, 10 is complete control)” value ([9]; Preemergence, Rate 250 g/ha) was 0. For the same molecule, the “B. signalgrass plant response rating” value [9, 20] was 0, the “Plant response rating, B. signalgrass” value [9, 21] was 0 and the “Rape plant response rating” value [10, 17] was 2. For the same molecule, the “Rape plant response rating” value [10, 22] was 3, the “Plant response rating, Rape” value [10, 23] was 4 and the “Rape plant response rating” value [10, 18] was 0. The “Rape plant response rating” value [10, 19] was 0, the “Rape plant response rating (0 to 10 scale)” value ([10]; Preemergence, Rate 250 g/ha) was 0 and the “Rape plant response rating” value [10, 20] was 0. For the same molecule, the “Plant response rating, Rape” value [10, 21] was 3, the “Crabgrass plant response rating” value [11, 17] was 0 and the “Crabgrass plant response rating” value [11, 22] was 0. For the same molecule, the “Plant response rating, Crabgrass” value [11, 23] was 8, the “Crabgrass plant response rating” value [11, 18] was 0 and the “Crabgrass plant response rating” value [11, 19] was 0. The “Crabgrass plant response rating (0 to 10 scale)” value ([11]; Preemergence, Rate 250 g/ha) was 0, the “Crabgrass plant response rating” value [11, 20] was 0 and the “Plant response rating, Crabgrass” value [11, 21] was 6. For the same molecule, the “Plant response rating, Velvetleaf” value [12, 24] was 7, the “Velvetleaf plant response rating” value [12, 18] was 0 and the “Velvetleaf plant response rating” value [12, 19] was 0. The “Velvetleaf plant response rating (0 to 10 scale)” value ([12]; Preemergence, Rate 250 g/ha) was 0, the “Velvetleaf plant response rating” value [12, 20] was 2 and the “Plant response rating, Velvetleaf” value [12, 25] was 0. The “Plant response rating, Sugarbeets” value [13, 24] was 0, the “Sugarbeets plant response rating” value [13, 18] was 0 and the “Sugarbeets plant response rating” value [13, 19] was 0. For the same molecule, the “Sugarbeets plant response rating (0 to 10 scale)” value ([13]; Preemergence, Rate 250 g/ha) was 0, the “Sugarbeets plant response rating” value [13, 20] was 0 and the “Plant response rating, Sugarbeets” value [13, 25] was 0. The “Plant response rating, Wheat” value [14, 24] was 0, the “Wheat plant response rating” value [14, 18] was 0 and the “Wheat plant response rating” value [14, 19] was 0. For the same molecule, the “Wheat plant response rating (0 to 10 scale)” value ([14]; Preemergence, Rate 250 g/ha) was 0, the “Wheat plant response rating” value [14, 20] was 0 and the “Plant response rating, Wheat” value [14, 25] was 0. The “Plant response rating, Wild oats” value [15, 24] was 0, the “Wild oats plant response rating” value [15, 18] was 0 and the “Wild oats plant response rating” value [15, 19] was 0. The “Wild oats plant response rating (0 to 10 scale)” value ([15]; Preemergence, Rate 250 g/ha) was 0, the “Wild oats plant response rating” value [15, 20] was 0 and the “Plant response rating, Wild oats” value [15, 25] was 0. The “Giant foxtail plant response rating” value [16, 17] was 0, the “Giant foxtail plant response rating” value [16, 22] was 0 and the “Plant response rating, Giant foxtail” value [16, 23] was 0. The “Giant foxtail plant response rating” value [16, 18] was 0, the “Giant foxtail plant response rating” value [16, 19] was 0 and the “Giant foxtail plant response rating (0 to 10 scale)” value ([16]; Preemergence, Rate 250 g/ha) was 4. The “Giant foxtail plant response rating” value [16, 20] was 7 and the “Plant response rating, Giant foxtail” value [16, 21] was 0.
